Experimental data reported in patent publication US7858647B2, “N-[1,3,4]-thiadiazol-2-yl-benzene sulfonamides, pharmaceutical compositions thereof and methods for their therapeutic use” (Sanofi-Aventis, priority 2005, dated 2010).
Like-named read-outs stand apart in the source and are kept apart here.

Experiments:
human PPARdelta = biological target: T1, human PPARdelta (Homo sapiens, UniProt Q03181); assay: Cellular PPARdelta assay (luciferase reporter, stably transfected HEK cell line); type: cell-based; conditions: GR-GAL4-humanPPARdelta-LBD
T1 construct: amino acids S139-Y441; expressed in transfected cells
T1 sequence (Q03181 139-441): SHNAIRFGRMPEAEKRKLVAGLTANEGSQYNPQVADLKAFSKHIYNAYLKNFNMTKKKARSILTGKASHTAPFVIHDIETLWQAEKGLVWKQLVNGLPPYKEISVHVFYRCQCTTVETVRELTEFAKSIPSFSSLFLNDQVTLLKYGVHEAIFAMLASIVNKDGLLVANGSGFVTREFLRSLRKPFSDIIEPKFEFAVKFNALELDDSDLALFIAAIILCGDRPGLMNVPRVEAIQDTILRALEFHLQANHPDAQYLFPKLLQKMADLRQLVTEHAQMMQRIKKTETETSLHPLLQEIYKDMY
Description: The activity of PPARalpha agonists is determined in a 3-day assay which is described below:
The PPARalpha reporter cell line is cultivated to 80% confluence in DMEM (#41965-039, Invitrogen) which is mixed with the following additions: 10% cs-FCS (fetal calf serum; #SH-30068.03, Hyclone), 0.5 mg/ml zeocin (#R250-01, Invitrogen), 0.5 mg/ml G418 (#10131-027, Invitrogen), 1% penicillin-streptomycin solution (#15140-122, Invitrogen) and 2 mM L-glutamine (#25030-024, Invitrogen). The cultivation takes place in standard cell culture bottles (#353112, Becton Dickinson) in a cell culture incubator at 37° C. in the presence of 5% CO2. The 80%-confluent cells are washed once with 15 ml of PBS (#14190-094, Invitrogen), treated with 3 ml of trypsin solution (#25300-054, Invitrogen) at 37° C. for 2 min, taken up in 5 ml of the DMEM described and counted in a cell counter. After dilution to 500.000 cells/ml, 35,000 cells are seeded in each well of a 96 well microtiter plate with a clear plastic base (#3610, Corning Costar). The plates are incubated in the cell culture incubator at 37° C. and 5% CO2 for 24 h.
PPARalpha Agonists to be Tested are Dissolved in DMSO in a Concentration of 10 mM. This stock solution is diluted in DMEM (#41965-039, Invitrogen) which is mixed with 5% cs-FCS (#SH-30068.03, Hyclone), 2 mM L-glutamine (#25030-024, Invitrogen) and the previously described antibiotics (zeocin, G418, penicillin and streptomycin). Test substances are tested in 11 different concentrations in the range from 10 μM to 100 pM.
The medium of the PPARalpha reporter cell line seeded on day 1 is completely removed by aspiration, and the test substances diluted in medium are immediately added to the cells. The dilution and addition of the substances is carried out by a robot (Beckman FX). The final volume of the test substances diluted in medium is 100 μl per well of a 96 well microtiter plate. The DMSO concentration in the assay is less than 0.1% v/v in order to avoid cytotoxic effects of the solvent.
The assay plates are incubated in an incubator at 37° C. and 5% CO2 for 24 h.
The PPARalpha reporter cells treated with the test substances are removed from the incubator, and the medium is aspirated off. The cells are lyzed by pipetting 50 μl of Bright Glo reagent (from Promega) into each well of a 96 well microtiter plate. After incubation at room temperature in the dark for 10 minutes, the microtiter plates are measured in the luminometer (Trilux from Wallac). The measuring time for each well of a microtiter plate is 1 sec.
The raw data from the luminometer are transferred into a Microsoft Excel file. Dose-effect plots and EC50 values of PPAR agonists are calculated using the XL.Fit program as specified by the manufacturer (IDBS).
The potency of substances which bind to human PPARdelta and activate it in an agonistic manner is analyzed using a stably transfected HEK cell line (HEK=human embryo kidney) which is referred to here as PPARdelta reporter cell line. In analogy to the assay described for PPARalpha, the PPARdelta reporter cell line also contains two genetic elements, a luciferase reporter element (pdeltaM-GAL4-Luc-Zeo) and a PPARdelta fusion protein (GR-GAL4-humanPPARdelta-LBD) which mediates expression of the luciferase reporter element depending on a PPARdelta ligand. The stably and constitutively expressed fusion protein GR-GAL4-humanPPARdelta-LBD binds in the cell nucleus of the PPARdelta reporter cell line via the GAL4 protein portion to the GAL4 DNA binding motifs 5′-upstream of the luciferase reporter element which is stably integrated in the genome of the cell line. There is only little expression of the luciferase reporter gene in the absence of a PPARdelta ligand if fatty acid-depleted fetal calf serum (cs-FCS) is used in the assay. PPARdelta ligands bind and activate the PPARdelta fusion protein and thereby stimulate expression of the luciferase reporter gene. […]

[1] = diabetic animal model; cited from earlier work
[2] = obese, insulin resistant rhesus monkeys, cited from earlier work
[3] = rhesus monkeys; cited from earlier work
[4] = cynomolgus monkeys; cited from earlier work
[5] = two weeks clinical trials in healthy volunteers; cited from earlier work

## CCOc1cc(C(F)(F)F)ccc1C(=O)NCCc1ccc(S(=O)(=O)Nc2nnc(C(C)C)s2)cc1 [Example 16, 2-Ethoxy-N-{2-[4-(5-isopropyl-[1,3,4]thiadiazol-2-ylsulfamoyl)-phenyl]-ethyl}-4-trifluoromethyl-benzamide]
Human PPARdelta
  EC50: 0.046 µM

## CCCc1c(OCCCOc2ccc(OCC(=O)O)cc2)ccc(C(C)=O)c1O [Example L-165041]
[1]
  plasma cholesterol: raises

## Cc1cc(SCc2sc(-c3ccc(C(F)(F)F)cc3)nc2C)ccc1OCC(=O)O [GW501516]
[2]; plasma
  insulin levels: decreases
  triglycerides: decreases
[2]
  HDL-cholesterol: raises
  plasma LDL-cholesterol: decreases

## CCCc1c(OCCCSc2nnc(SCC(=O)O)s2)ccc(C(C)=O)c1O [YM-16638]
[3]
  plasma lipids: significantly lowers
[4]
  plasma lipids: significantly lowers
[5]
  plasma lipids: acts in a similar manner
